System: skin
Test: Test Example 1: transepidermal water loss (TEWL) of skin pretreated with sodium lauryl sulfate, Tewameter
Format: in vivo
Conditions: conclusion drawn from Table 3
Method: Vesicle dispersion liquid 1, Vesicle dispersion liquid 2, Comparative Example 4, Comparative Example 5, and Comparative Example 6 were each used as a sample. The skin was previously applied and blocked with 1% sodium lauryl sulfate aqueous solution for 24 hours to enhance transepidermal water loss (TEWL), and was applied and blocked with the sample for 6 hours, and 30 minutes after removing a bandage, TEWL was determined using Tewameter (manufactured by Integral Corporation). It should be noted that water was applied as a control. […] This is inferably because the dermis-reaching property of Palmaria extract 1, which is an active ingredient, has been enhanced owing to the vesicle.

CCCCCCCCCCCC(=O)N[C@@H](CCC(=O)NCCCC[C@H](NC(=O)CC[C@H](NC(=O)CCCCCCCCCCC)C(=O)O)C(=O)O)C(=O)O [Pellicer L-30, α,ε-bis (γ-N-lauroylglutamyl)lysine]
TEWL-suppressing effect (in words): had a function of suppressing TEWL

Source: patent US8865208B2, “Vesicle useful for external preparation for skin, and external preparation for skin comprising the vesicle” (Pola Chemical Industries Inc., priority 2007, dated 2014)
